Where two headings read alike, the source gives them in different places.
Experiments:
[1] = biological target: T1, human Nox4 (Homo sapiens, UniProt Q9NPH5); assay type: biochemical; details: read-out: Ki on Nox4; cell free membrane assay
T1 sequence (Q9NPH5 1-578): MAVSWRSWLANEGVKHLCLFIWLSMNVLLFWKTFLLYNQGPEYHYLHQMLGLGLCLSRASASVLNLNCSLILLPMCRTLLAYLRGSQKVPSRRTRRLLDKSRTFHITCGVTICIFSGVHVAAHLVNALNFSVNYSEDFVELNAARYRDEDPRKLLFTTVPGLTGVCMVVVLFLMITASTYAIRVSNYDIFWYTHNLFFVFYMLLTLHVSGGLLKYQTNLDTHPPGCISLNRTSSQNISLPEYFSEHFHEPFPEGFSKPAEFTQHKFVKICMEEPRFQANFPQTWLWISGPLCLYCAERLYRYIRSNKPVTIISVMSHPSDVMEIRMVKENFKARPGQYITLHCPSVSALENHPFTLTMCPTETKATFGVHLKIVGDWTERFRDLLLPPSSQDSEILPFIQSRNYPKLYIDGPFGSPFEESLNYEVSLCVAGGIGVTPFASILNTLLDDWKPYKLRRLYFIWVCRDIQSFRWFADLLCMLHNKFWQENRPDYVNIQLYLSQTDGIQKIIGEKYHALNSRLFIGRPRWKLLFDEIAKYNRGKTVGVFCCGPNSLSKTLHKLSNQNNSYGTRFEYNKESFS
T1 sequence (P13498 2-195 partner limits assumed): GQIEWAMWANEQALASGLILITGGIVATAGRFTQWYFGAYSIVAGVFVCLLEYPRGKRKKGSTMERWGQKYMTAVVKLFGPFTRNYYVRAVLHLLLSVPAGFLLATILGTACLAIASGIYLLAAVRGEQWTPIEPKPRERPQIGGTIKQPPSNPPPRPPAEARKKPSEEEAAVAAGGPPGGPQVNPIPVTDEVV

[2] = biological target: xanthine oxidase (Homo sapiens, UniProt P47989); assay: xanthine oxidase assay, same ROS read-out as NOX assays; assay type: biochemical
Chain of xanthine oxidase (P47989 whole entry, species assumed): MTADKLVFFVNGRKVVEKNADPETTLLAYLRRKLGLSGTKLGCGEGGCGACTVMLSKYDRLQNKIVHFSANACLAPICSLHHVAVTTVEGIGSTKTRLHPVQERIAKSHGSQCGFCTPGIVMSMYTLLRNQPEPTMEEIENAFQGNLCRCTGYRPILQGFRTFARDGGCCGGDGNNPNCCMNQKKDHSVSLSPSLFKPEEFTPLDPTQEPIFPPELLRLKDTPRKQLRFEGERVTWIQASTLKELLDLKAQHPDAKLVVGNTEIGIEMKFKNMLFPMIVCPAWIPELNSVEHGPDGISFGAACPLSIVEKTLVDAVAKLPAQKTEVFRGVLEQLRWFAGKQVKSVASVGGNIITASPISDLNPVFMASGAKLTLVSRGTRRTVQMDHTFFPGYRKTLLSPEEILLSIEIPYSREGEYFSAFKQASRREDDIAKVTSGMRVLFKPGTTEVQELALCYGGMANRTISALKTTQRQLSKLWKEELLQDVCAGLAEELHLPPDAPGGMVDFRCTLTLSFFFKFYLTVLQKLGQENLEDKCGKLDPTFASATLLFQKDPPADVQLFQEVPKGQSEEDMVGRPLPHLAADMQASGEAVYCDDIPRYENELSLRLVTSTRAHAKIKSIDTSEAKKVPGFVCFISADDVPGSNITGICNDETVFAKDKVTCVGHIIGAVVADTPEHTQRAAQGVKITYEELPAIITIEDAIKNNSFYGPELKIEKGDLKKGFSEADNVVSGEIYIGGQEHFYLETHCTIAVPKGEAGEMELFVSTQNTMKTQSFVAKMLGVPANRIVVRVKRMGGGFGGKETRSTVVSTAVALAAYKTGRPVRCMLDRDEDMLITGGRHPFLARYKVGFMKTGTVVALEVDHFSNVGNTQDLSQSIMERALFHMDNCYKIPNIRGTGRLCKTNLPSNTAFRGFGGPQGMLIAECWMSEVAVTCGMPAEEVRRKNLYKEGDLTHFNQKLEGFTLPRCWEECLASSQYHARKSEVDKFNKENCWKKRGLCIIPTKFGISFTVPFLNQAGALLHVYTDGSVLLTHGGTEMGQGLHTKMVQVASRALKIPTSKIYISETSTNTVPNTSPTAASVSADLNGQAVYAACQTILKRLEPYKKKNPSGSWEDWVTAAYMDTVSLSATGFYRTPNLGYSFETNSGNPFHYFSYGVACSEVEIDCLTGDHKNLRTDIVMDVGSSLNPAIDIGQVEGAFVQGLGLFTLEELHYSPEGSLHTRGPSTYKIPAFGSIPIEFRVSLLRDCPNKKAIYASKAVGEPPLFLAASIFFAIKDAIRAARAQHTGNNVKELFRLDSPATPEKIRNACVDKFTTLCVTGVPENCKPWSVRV

[3] = system: Rac1; assay: Rac1 G-LISA activation assay in HSCs; assay type: cell-based, mouse; details: WT and SOD1mu HSCs, 20 μM, 24 hours
[4] = biological target: T2, human Nox1 (Homo sapiens, UniProt Q9Y5S8); assay type: biochemical
T2 sequence (Q9Y5S8 1-564): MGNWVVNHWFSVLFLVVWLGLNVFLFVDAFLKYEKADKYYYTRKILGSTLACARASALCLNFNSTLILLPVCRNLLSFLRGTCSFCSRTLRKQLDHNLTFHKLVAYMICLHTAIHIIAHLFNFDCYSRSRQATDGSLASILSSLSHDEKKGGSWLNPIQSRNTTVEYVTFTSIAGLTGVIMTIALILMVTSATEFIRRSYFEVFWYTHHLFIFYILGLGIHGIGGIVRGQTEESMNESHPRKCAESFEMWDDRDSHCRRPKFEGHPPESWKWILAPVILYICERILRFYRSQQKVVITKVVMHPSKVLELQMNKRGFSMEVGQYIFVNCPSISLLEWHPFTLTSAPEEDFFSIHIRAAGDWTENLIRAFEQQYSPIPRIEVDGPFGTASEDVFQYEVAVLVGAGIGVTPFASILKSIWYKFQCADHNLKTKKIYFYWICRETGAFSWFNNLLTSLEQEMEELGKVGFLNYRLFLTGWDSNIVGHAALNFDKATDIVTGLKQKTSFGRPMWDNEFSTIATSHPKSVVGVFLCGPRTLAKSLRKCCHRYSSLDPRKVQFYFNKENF
T2 sequence (P13498 2-195 partner limits assumed): T1 sequence (P13498 2-195 partner limits assumed)

[5] = system: HSCs; assay: ROS generation in DCFDA-loaded HSCs; assay type: cell-based, mouse; details: SOD1mu and WT HSCs, Ang II 10^−6 M, 20 μM
[6] = system: activated HSCs; assay: gene expression in culture-activated primary HSCs; assay type: cell-based, mouse; details: 20 μM
[7] = system: 170 different proteins; assay: in vitro off-target pharmacological profile; details: tested at 10 μM
[8] = system: BDL-induced hepatic fibrosis; assay: bile duct ligation; assay type: in vivo; details: WT and SOD1mu mice, 60 mg/kg daily from day 11
[9] = system: colI-GFP HSCs; assay: collagen promoter-driven GFP expression in HSCs; assay type: cell-based, mouse; details: SOD1mu and WT HSCs, Ang II 10^−6 M, 20 μM, 24 hours
[10] = system: CCl4-induced liver fibrosis; assay: CCl4 model of liver fibrosis; assay type: in vivo, mice
[11] = system: HSCs; assay: gene expression in Ang II stimulated HSCs; assay type: cell-based, mouse; details: Ang II 10^−6 M, 20 μM, 24 hours
[12] = system: NOX2-driven neutrophil oxidative burst; assay: neutrophil oxidative burst by flow cytometry in human whole blood; assay type: cell-based; details: up to 100uM
[13] = CCl4 treated SOD1mu mice, 60 mg/kg daily
[14] = SOD1mu and WT mice, 60 mg/kg daily

`c1ccc([I+]c2ccccc2)cc1` [DPI, Diphenyliodonium, reference compound] was tested, and the Ki [1] was 70 ± 10 nM and the Ki ([2]; read-out: Ki on xanthine oxidase) was 50 nM.
In the case of `CN(C)c1cccc(-c2c3c(=O)n(-c4ccccc4Cl)[nH]c3cc(=O)n2C)c1` [GKT137831, 2-(2-chlorophenyl)-4-[3-(dimethylamino)phenyl]-5-methyl-1H-pyrazolo[4,3-c]pyridine-3,6(2H,5H)-dione], the “Rac1 activity after Ang II stimulation” value [3] is reported as “no effect”, the Ki [4] is reported as 110 ± 30 nM and the Ki [2] is reported as over 100000 nM. The “scavenging of superoxide (O2•−)” value [2] was “inability to scavenge superoxide”, the “Ang II induced ROS generation” value [5] was “suppressed” and the “NOX4 and NOX1 mRNA expression” value ([6]; activated SOD1mu HSCs) was “suppressed”. The “collagen α1(I) and Acta2 mRNA expression” value ([6]; activated SOD1mu and WT HSCs) was “reduced”, the “inhibition of off-target proteins” value [7] was “did not show any significant inhibition of any tested target protein” and the BDL-induced hepatic fibrosis [8] was “decreased”. For the same compound, the “Ang II induced GFP fluorescence (collagen α1(I) promoter)” value [9] was “suppressed”, the “liver inflammation and injury” value ([10]; CCl4 treated SOD1mu and WT mice, 60 mg/kg daily) was “inhibited to similar lower levels” and the “hepatic 4-HNE levels” value [10, 13] was “suppressed”. The “hepatic MDA levels (TBARS)” value [10, 13] was “suppressed”, the “hepatic mRNA expression of TNF-α” value [10, 13] was “suppressed” and the “serum ALT levels” value [10, 13] was “reduced”. The “macrophage infiltration and activation (F4/80, CD68)” value ([10]; CCl4 treated mice, 60 mg/kg daily) was “prevented macrophage infiltration and activation”, the “hepatic collagen deposition (Sirius red staining)” value [10, 14] was “reduced” and the “hepatic mRNAs of collagen α1(I), TIMP-1 and TGF-β” value [10, 14] was “reduced the induction of those genes to the same lower levels”. For the same compound, the CCl4-induced liver fibrosis ([10]; SOD1mu and WT mice, 60 mg/kg intragastric daily, last half of CCl4 treatment) was “attenuated”, the “hepatic α-SMA expression” value ([10]; SOD1mu mice, immunohistochemistry and immunoblotting, 60 mg/kg daily) was “markedly decreased” and the “Ang II induced NOX1 and NOX4 mRNA expression” value ([11]; SOD1mut and WT HSCs) was “suppressed”. For the same compound, the “Ang II induced collagen α1(I) and TIMP-1 mRNA expression” value ([11]; WT and SOD1mu HSCs) was “blocked” and the “inhibition of neutrophil oxidative burst” value [12] was “did not significantly inhibit”.

— publication PMC3493679 (Hepatology (Baltimore, Md.), 2012)
